Source: patent US20040242665A1, “Hair composition containing a styrylpyrazole compound, and use thereof for stimulating or inducing hair or eyelash growth and/or reducing loss thereof” (SOCIETE L'OREAL S.A., priority 2002, published 2004)

Experiments:
[1] = molecular target: T1, PGF synthase (Homo sapiens, UniProt P42330); assay: Test on PGF synthase (spectrophotometric, 340 nm, 9,10-phenanthrenequinone and NADPH); format: biochemical; conditions: pH 6.5 Tris buffer, 37° C., 20 μM 9,10-phenanthrenequinone, 100 μM β-NADPH; read-out: Inhibition of PGF synthase IC50fs
T1 construct: made in house
T1 sequence (P42330 1-323): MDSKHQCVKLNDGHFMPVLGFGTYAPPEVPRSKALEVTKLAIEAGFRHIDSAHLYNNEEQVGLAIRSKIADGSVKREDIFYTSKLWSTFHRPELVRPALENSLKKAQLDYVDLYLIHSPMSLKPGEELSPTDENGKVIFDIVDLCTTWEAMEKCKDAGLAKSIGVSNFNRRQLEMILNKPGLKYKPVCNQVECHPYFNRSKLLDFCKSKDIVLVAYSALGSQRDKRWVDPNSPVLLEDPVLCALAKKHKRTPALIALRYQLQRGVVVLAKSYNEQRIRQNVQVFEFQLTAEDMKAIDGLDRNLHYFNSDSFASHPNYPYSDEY
Description: The enzyme PGFS is obtained as described in document FR-A-02/05067, at a concentration of 0.5 mg/ml, as a suspension in a suitable medium, and blocked at −80° C. For the purposes of the test, this suspension is thawed and stored in ice.
In parallel, a 100 mM, pH 6.5 Tris buffer containing 20 μm of 9,10-phenanthrenequinone* (P2896, Sigma-Aldrich, L'isle D'Abeau Chesne, BP 701, 38297, Saint Quentin Fallavier) and 100 μM of β-NADPH (N1630, Sigma-Aldrich, L'isle D'Abeau Chesne, BP 701, 38297, Saint Quentin Fallavier) is prepared in a brown flask (protected from light).
*A stock solution with a titre of 1 mM is prepared in absolute ethanol and brought to 40° C.; the flask is placed in an ultrasound tank to facilitate the dissolution of the product.
(§1) 0.950 ml of this buffer (brought to 37° C. beforehand) is introduced into the cuvette of a spectrophotometer (Perkin-Elmer, Lambda 2) thermostatically maintained at 37° C., the measuring wavelength of which is set at 340 nm. 0.05 ml of enzymatic suspension at 37° C. is introduced into the cuvette concomitantly with the recording (corresponding to a reduction in the optical density at 340 nm). The maximum reaction rate is recorded.
The test values (containing compound (I)) are compared with the control value (without compound (I)); the results indicated represent the concentration at which compound (I) inhibits 50% of the enzymatic activity of PGFS, noted as IC50fs.

[2] = molecular target: T2, 15-PGDH (Homo sapiens, UniProt P15428); assay: Test on 15-PGDH (spectrophotometric, 340 nm, PGE2 and NAD); format: biochemical; conditions: for IC50: pH 7.4 Tris buffer, 37° C., 50 μM prostaglandin E2, read-out: Inhibition of 15-PGDH IC50dh
T2 construct: made in house
T2 sequence (P15428 1-266): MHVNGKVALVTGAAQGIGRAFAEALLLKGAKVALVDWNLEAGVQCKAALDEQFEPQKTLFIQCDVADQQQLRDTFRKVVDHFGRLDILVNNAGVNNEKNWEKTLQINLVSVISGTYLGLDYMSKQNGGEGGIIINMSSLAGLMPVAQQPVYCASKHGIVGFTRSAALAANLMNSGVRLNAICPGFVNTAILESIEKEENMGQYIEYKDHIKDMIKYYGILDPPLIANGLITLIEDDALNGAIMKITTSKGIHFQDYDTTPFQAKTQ
Description: The enzyme 15-PGDH is obtained as described in patent application FR 02/05067 filed in the name of L'Oreal, as a suspension in a medium adjusted to a concentration of 0.3 mg/ml and then blocked at −80° C. For the purposes of the test, this suspension is thawed and stored in ice.
In parallel, a 100 mM, pH 7.4 Tris buffer containing 0.1 mM of dithiothreitol (D5545, Sigma-Aldrich, L'isle D'Abeau Chesne, BP 701, 38297, Saint Quentin Fallavier), 1.5 mM of P-NAD (N6522, Sigma-Aldrich, L'isle D'Abeau Chesne, BP 701, 38297, Saint Quentin Fallavier), and 50 μM of prostaglandin E2 (P4172, Sigma-Aldrich, L'isle D'Abeau Chesne, BP 701, 38297, Saint Quentin Fallavier) is prepared.
as §1, with “0.965” for “0.950”, “0.035” for “0.05”, “an increase” for “a reduction”

SMILES	IC50 [1] [µM]	IC50 [2] [µM]	Selectivity (IC50fs/IC50dh ratio) ([2]; 15-PGDH relative to PGF synthase)
N#C/C(=C\c1c(Cl)cccc1Cl)c1nn(CCO)c(N)c1C#N [Compound 1a]	> 50	3	
N#C/C(=C\c1c(Cl)cccc1Cl)c1nn(-c2ccccc2)c(N)c1C#N [Compound 6]	> 50	0.8	
N#C/C(=C\c1ccccc1Cl)c1nn(-c2ccccc2)c(N)c1C#N [Compound 7]	> 50	3	
N#C/C(=C\c1ccccc1)c1nn(-c2ccccc2)c(N)c1C#N [Compound 8]	> 75	50	>1.5
COc1ccccc1/C=C(\C#N)c1nn(-c2ccccc2)c(N)c1C#N [Compound 9]		5	
